Measured values reported in patent publication US8207156B2, “Substituted pyrazoline compounds, their preparation and use as medicaments” (Laboratorios Del Dr. Esteve, S.A., priority 2005, dated 2012).

Key:
CB1 receptor [1] = biological target: T1, CB1 receptor; test: In-vitro determination of affinity to CB1/CB2-receptors (radioligand [3H]-CP55940 binding); details: binding data per pharmacological methods part I, table does not say whether human transfected receptor or rat cerebellum
T1 construct: IC50 [nM]; radioligand [3H]-CP55940
Experimental: (§1) The in-vitro determination of the affinity of the inventive substituted pyrazoline compounds to CB1/CB2-Rezeptors is carried out as described in the publication of Ruth A. Ross, Heather C. Brockie et al., “Agonist-inverse agonist characterization at CB1 and CB2 cannabinoid receptors of L-759633, L759656 and AM630”, British Journal of Pharmacology, 126, 665-672, (1999), whereby the transfected human CB1 and CB2 receptors of Receptor Biology, Inc. are used. The radioligand used for both receptors is [^3H]-CP55940. The respective parts of the description is hereby incorporated by reference and forms part of the present disclosure.
(§2) Binding affinity to CB1 receptor was evaluated according to a modification of the method described by Govaerts et al., Eur J Pharmac Sci 23, 233-243 (2004). The respective parts of the description is hereby incorporated by reference and forms part of the present disclosure.
(§3) Briefly, cerebellum from male wistar rats (250-300 g) were carefully dissected on ice and homogenates were prepared with Potter-Helveheim in a cold 50 mM Tris-HCl solution containing 5 mM MgCl2, 1 mM EDTA and 0.25 M sucrose, pH 7.4. The suspension was centrifuged at 1,000×g for 5 minutes. The supernatants were collected and centrifuged 50,000×g for 15 minutes. The resulting pellets were then resuspended in Tris-HCl buffer without sucrose, homogenized and incubated for 15 min at 37° C. in an orbital shaker bath and centrifuged again at 50,000×g for 15 min. Pellets were weighted, resuspended in Tris-HCl buffer without sucrose, homogenized with Ultraturrax at 13,500 rpm for 3×5 seconds and alicuoted in 0.9 ml volumes in Eppendorf tubes. Alicuotes were centrifuged at 20,800×g for 5 minutes, supernatants discarded and pellets were frozen at −80° C. until use. Total protein concentration was determined using the Bio-Rad Lowry method based kit. Competitive binding experiments were performed in presence of 1 nM [^3H]-CP 55,940 in siliconized glass tubes containing 100 μg protein/tube resuspended in 1 ml final volume of 50 mM Tris-HCl, 5 mM MgCl2, 1 mM EDTA, 0.5% (w/v) bovine serum albumin, pH 7.4. Compounds were present at various concentrations and the non specific binding was determined in the presence of 10 μM HU-210. After 1 hour incubation at 30° C., the suspension was rapidly filtered through 0.5% PEI pre-treated GF/B fiber filters on a 96-well harvester and washed 3 times with 3 ml ice-cold binding buffer without bovine serum albumin. Radioactivity on filters was measured with Wallac Winspectral 1414 counter by liquid scintillation in 6 ml Ecoscint H (National Diagnostics, U.K.). Assays were made in triplicates.
(§4) Binding data were analyzed by non-linear regression with the software GraphPad Prism Version 3.03.

[2] = biological target: recombinant human cannabinoid 1 receptor (CB1) (Homo sapiens, UniProt P21554); test: In vitro determination of antagonism to CB1-receptor ([35S]GTPγS binding assay, CHO cell membranes); format: biochemical; details: compound at 1 μM against agonist WIN 55,212-2 (3 nM to 3 μM); effect of Rimonabant (1 μM) defined as 100%
Outline: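 Membranes from CHO cells stably expressing human CB1 (15 μg protein/well) incubated 60 min at 30° C., pH 7.4, with 5 μM GDP, saponin and 0.5 nM [35S]GTPγS, compound at 1 μM final, with or without WIN 55,212-2 (3 nM–3 μM). Bound radioactivity via filtration; basal subtracted, antagonism scaled to WIN 55,212-2 ± Rimonabant (1 μM) window as 100%.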

CB1 receptor [3] = biological target: T2, CB1 receptor (UniProt P20272); test: In-vitro determination of affinity to CB1/CB2-receptors (radioligand [3H]-CP55940 binding); details: for Inhibition [%], 10^−7 M: compound at 10^−7 M; for Inhibition [%], 10^−8 M: compound at 10^−8 M
T2 construct: other: compound at 10^−7 M; radioligand [3H]-CP55940; other: compound at 10^−8 M
Experimental: as §1, §2, §3, §4

Sequence of recombinant human cannabinoid 1 receptor (CB1) (P21554 whole entry): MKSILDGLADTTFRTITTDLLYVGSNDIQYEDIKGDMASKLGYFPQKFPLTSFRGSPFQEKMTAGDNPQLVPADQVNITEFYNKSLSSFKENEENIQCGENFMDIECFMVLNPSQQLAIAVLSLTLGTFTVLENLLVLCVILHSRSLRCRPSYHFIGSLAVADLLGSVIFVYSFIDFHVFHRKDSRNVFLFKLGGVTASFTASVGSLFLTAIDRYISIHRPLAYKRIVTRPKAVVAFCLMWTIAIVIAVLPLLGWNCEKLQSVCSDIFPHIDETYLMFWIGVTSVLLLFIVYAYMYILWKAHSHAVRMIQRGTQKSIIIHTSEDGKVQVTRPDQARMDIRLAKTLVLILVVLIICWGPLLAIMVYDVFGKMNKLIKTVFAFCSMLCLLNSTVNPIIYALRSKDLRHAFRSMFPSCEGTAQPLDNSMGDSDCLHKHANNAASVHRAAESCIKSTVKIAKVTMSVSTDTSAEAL

IC50 (CB1 receptor [1]; hydrochloride) [nM]	Antagonism [%] [2] [%]	IC50 (CB1 receptor [1]) [nM]	Inhibition [%], 10^−7 M (CB1 receptor [3]) [%]	Inhibition [%], 10^−8 M (CB1 receptor [3]) [%]	SMILES	Inhibition [%], 10^−7 M (CB1 receptor [3]; hydrochloride) [%]	Inhibition [%], 10^−8 M (CB1 receptor [3]; hydrochloride) [%]
501	63	–	–	–	CC1CCCC(C)N1NC(=O)C1=NN(c2ccc(Cl)cc2Cl)C(c2ccc(Cl)cc2)C1.Cl (stereo not drawn) [Example 192, 5-(4-Chloro-phenyl)-1-(2,4-dichloro-phenyl)-4,5-dihydro-1H-pyrazole-3-carboxylic acid (2,6-dimethyl-piperidin-1-yl)-amide hydrochloride]	–	–
–	62	79.4	–	–	O=C(C1=NN(c2ccc(Cl)cc2Cl)C(c2ccc(Cl)cc2)C1)N1CCC2CCCCC2C1 (stereo not drawn) [Example 22, [5-(4-Chloro-phenyl)-1-(2,4-dichloro-phenyl)-4,5-dihydro-1H-pyrazol-3-yl]-(octahydro-isoquinolin-2-yl)-methanone]	–	–
–	112	20	–	–	COc1ccc(C2CC(C(=O)NN3CCCCC3)=NN2c2ccc(Cl)cc2Cl)cc1 (stereo not drawn) [Example 106A, 1-(2,4-Dichloro-phenyl)-5-(4-methoxy-phenyl)-4,5-dihydro-1H-pyrazole-3-carboxylic acid piperidin-1-ylamide]	–	–
–	44	794	–	–	O=C(C1=NN(c2ccc(Cl)cc2Cl)C(c2ccc(Cl)cc2)C1)N1CC=CCC1 (stereo not drawn) [Example 74, [5-(4-Chloro-phenyl)-1-(2,4-dichloro-phenyl)-4,5-dihydro-1H-pyrazol-3-yl]-(3,6-dihydro-2H-pyridin-1-yl)-methanone]	–	–
–	56	501	–	–	C[C@@H]1CN(C(=O)C2=NN(c3ccc(Cl)cc3Cl)C(c3ccc(Cl)cc3)C2)C[C@H](C)O1 (stereo partly drawn) [Example 80, [5-(4-Chloro-phenyl)-1-(2,4-dichloro-phenyl)-4,5-dihydro-1H-pyrazol-3-yl]-(2,6-dimethyl-morpholin-4-yl)-methanone]	–	–
–	–	12	71.8	35.2	O=C(NN1CCCCCCC1)C1=NN(c2ccc(Cl)cc2Cl)C(c2ccc(Br)cc2)C1 (stereo not drawn) [Example 146, 5-(4-bromo-phenyl)-1-(2,4-dichloro-phenyl)-4,5-dihydro-1H-pyrazole-3-carboxylic acid azocan-1-ylamide]	–	–
–	–	54	63.4	24.0	O=C(NN1CCCCCCC1)C1=NN(c2ccc(Cl)cc2Cl)C(c2ccc(F)cc2)C1 (stereo not drawn) [Example 147, 5-(4-fluoro-phenyl)-1-(2,4-dichloro-phenyl)-4,5-dihydro-1H-pyrazole-3-carboxylic acid azocan-1-ylamide]	–	–
–	–	146	71.2	−12.8	O=C(N[N+]1([O-])CCCCC1)C1=NN(c2ccc(Cl)cc2Cl)C(c2ccc(Cl)cc2)C1 (stereo not drawn) [Example 7, N-oxide of 5-(4-Chloro-phenyl)-1-(2,4-dichloro-phenyl)-4,5-dihydro-1H-pyrazole-3-carboxylic acid piperidin-1-ylamide]	–	–
–	–	32	82.3	67.5	O=C(N[C@H]1CCCC[C@@H]1OCc1ccccc1)C1=NN(c2ccc(Cl)cc2Cl)C(c2ccc(Cl)cc2)C1 (stereo partly drawn) [Example 151, N-((1S,2S)-2-(benzyloxy)cyclohexyl)-5-(4-chlorophenyl)-1-(2,4-dichlorophenyl)-4,5-dihydro-1H-pyrazole-3-carboxamide]	–	–
24	–	–	68.7	47.6	COc1ccc(C2CC(C(=O)NN3CCCCCC3)=NN2c2ccc(Cl)cc2Cl)cc1.Cl (stereo not drawn) [Example 114, 1-(2,4-Dichloro-phenyl)-5-(4-methoxy-phenyl)-4,5-dihydro-1H-pyrazole-3-carboxylic acid azepan-1-ylamide hydrochloride]	–	–
83	–	–	78.5	40.2	Cl.O=C(NN1CCCCC1)C1=NN(c2ccc(Cl)cc2Cl)C(c2ccc(F)cc2)C1 (stereo not drawn) [Example 135, 1-(2,4-Dichloro-phenyl)-5-(4-fluoro-phenyl)-4,5-dihydro-1H-pyrazole-3-carboxylic acid piperidin-1-ylamide hydrochloride]	–	–
–	–	115	70.2	42.9	O=C(NC1CCCCCC1)C1=NN(c2ccc(Cl)cc2Cl)C(c2ccc(F)cc2)C1 (stereo not drawn) [Example 131, 5-(4-Fluorophenyl)-1-(2,4-dichloro-phenyl)-4,5-dihydro-1H-pyrazole-3-carboxylic acid cycloheptylamide]	–	–
32	–	–	76.1	23.4	COc1ccc(C2CC(C(=O)NN3CCCCC3)=NN2c2ccc(Cl)cc2Cl)cc1.Cl (stereo not drawn) [Example 106, 1-(2,4-Dichloro-phenyl)-5-(4-methoxy-phenyl)-4,5-dihydro-1H-pyrazole-3-carboxylic acid piperidin-1-ylamide hydrochloride]	–	–
–	–	84	52.7	12	O=C(NCC1CCCCC1)C1=NN(c2ccc(Cl)cc2Cl)C(c2ccc(Cl)cc2)C1 (stereo not drawn) [Example 32, 5-(4-Chloro-phenyl)-1-(2,4-dichloro-phenyl)-4,5-dihydro-1H-pyrazole-3-carboxylic acid cyclohexylmethyl-amide]	–	–
–	–	52	67.7	33.1	O=C(NC1CCCCCC1)C1=NN(c2ccc(Cl)cc2Cl)C(c2ccc(Br)cc2)C1 (stereo not drawn) [Example 130, 5-(4-Bromo-phenyl)-1-(2,4-dichloro-phenyl)-4,5-dihydro-1H-pyrazole-3-carboxylic acid cycloheptylamide]	–	–
–	–	106	61.8	46.3	COc1ccc(C2CC(C(=O)NN3CCc4ccccc43)=NN2c2ccc(Cl)cc2Cl)cc1.Cl (stereo not drawn) [Example 112, 1-(2,4-Dichloro-phenyl)-5-(4-methoxy-phenyl)-4,5-dihydro-1H-pyrazole-3-carboxylic acid (2,3-dihydro-indol-1-yl)-amide hydrochloride]	–	–

SMILES	IC50 (CB1 receptor [1]; hydrochloride) [nM]	Antagonism [%] [2] [%]	IC50 (CB1 receptor [1]) [nM]	Inhibition [%], 10^−7 M (CB1 receptor [3]) [%]	Inhibition [%], 10^−8 M (CB1 receptor [3]) [%]	Inhibition [%], 10^−7 M (CB1 receptor [3]; hydrochloride) [%]	Inhibition [%], 10^−8 M (CB1 receptor [3]; hydrochloride) [%]
O=C(NN1CC2CCCC2C1)C1=NN(c2ccc(Cl)cc2Cl)C(c2ccc(Br)cc2)C1 (stereo not drawn) [Example 63, 5-(4-Bromo-phenyl)-1-(2,4-dichloro-phenyl)-4,5-dihydro-1H-pyrazole-3-carboxylic acid (hexahydro-cyclopenta[c]pyrrol-2-yl)-amide]	–	119	25.1	–	–	–	–
Cl.O=C(NN1CC2CCCC2C1)C1=NN(c2ccc(Cl)cc2Cl)C(c2ccc(F)cc2)C1 (stereo not drawn) [Example 91, 1-(2,4-Dichloro-phenyl)-5-(4-fluoro-phenyl)-4,5-dihydro-1H-pyrazole-3-carboxylic acid (hexahydro-cyclopenta[c]pyrrol-2-yl)-amide hydrochloride]	47	–	–	–	–	79.1	43
COc1ccc(C2CC(C(=O)NN3CC4CCCC4C3)=NN2c2ccc(Cl)cc2Cl)cc1.Cl (stereo not drawn) [Example 109, 1-(2,4-Dichloro-phenyl)-5-(4-methoxy-phenyl)-4,5-dihydro-1H-pyrazole-3-carboxylic acid (hexahydro-cyclopenta[c]pyrrol-2-yl)-amide hydrochloride]	16	–	–	–	–	80.6	44
COc1ccc(C2CC(C(=O)NN3CC4CCCC4C3)=NN2c2ccc(Cl)cc2Cl)cc1.Cl (stereo not drawn) [Example 109A, 1-(2,4-Dichloro-phenyl)-5-(4-methoxy-phenyl)-4,5-dihydro-1H-pyrazole-3-carboxylic acid (hexahydro-cyclopenta[c]pyrrol-2-yl)-amide]	–	–	15	74.2	33.5	–	–
